{
  "source": "patent US20080234464A1",
  "about": "“Compound Having Amino Acid Residue or Peptide Residue and Process for Producing the Same” (priority 2005, published 2008)",
  "format_in_all_cases": "cell-based",
  "key": {"[1]": {"tested_on": "T24 (human urinary bladder carcinoma) cells", "experiment": "Nucleic acid transfection experiment (oligo DNA level), FITC-labeled single-strand DNA, FACS", "details": "0.3 μg FITC-labeled single-strand DNA (20 mer), 4 hours at 37° C.", "procedure": "(§1) PC3 ([…]) cells, UMUC3 (human bladder carcinoma) cells, T24 (human urinary bladder carcinoma) cells and NIH-3T3 (mouse embryonic fibroblast) cells were separately precultured in a 12-well plate, either in a 10% FBS-containing RPMI medium (PC3 cells, NIH-3T3 cells, and T24 cells) or in a 10% FBS-containing DMEM medium (UMUC cells), to attain a 60 to 70% confluent state.\n(§2) A 1 μl quantity of each of the compounds shown in Table 1 [solutions containing compound (1-A) or (1-B) at 0.37, 0.13 and 0.04 mM] was added to each of a corresponding number of containers each holding 50 μl of non-serum medium, mixed by tapping, and incubated at room temperature for 5 minutes. Subsequently, 0.3 μg of FITC-labeled single-strand DNA (20 mer) (FITC-[…]: product of Proligo) was added to each of the above-prepared media containing a carrier for nucleic acid transfection, mixed by tapping, and incubated at 37° C. for 30 minutes (mixed by tapping every 10 minutes). The obtained mixtures were separately added to the above wells in which the cell culture had been completed, leveled by lightly tapping, and then incubated at 37° C. for 4 hours. The cells were collected, and FITC-positive cells were counted by FACS to calculate DNA transfection efficiency (%) in cells. Further, for the comparison with conventional carriers for nucleic acid transfection (Lipofectamine 2000, TransIt-TKO, and Fugene 6), siRNA transfection efficiency (%) in PC3 cells was calculated in the same manner as above using the protocol recommended by the respective manufacturer and corresponding to a transfection nucleic acid amount of 0.3 μg."}, "[2]": {"tested_on": "UMUC3 (human bladder carcinoma) cells", "experiment": "Nucleic acid transfection experiment (oligo DNA level), FITC-labeled single-strand DNA, FACS", "details": "0.3 μg FITC-labeled single-strand DNA (20 mer), 4 hours at 37° C.", "procedure": "as §1, §2"}, "[3]": {"tested_on": "PC3 (human lung adenocarcinoma) cells", "experiment": "Nucleic acid transfection experiment (oligo DNA level), FITC-labeled single-strand DNA, FACS", "details": "for DNA transfection efficiency in cells (%): PC3, 0.3 μg FITC-labeled single-strand DNA (20 mer), 4 hours at 37° C.", "procedure": "as §1, §2"}, "[4]": {"tested_on": "NIH-3T3 (mouse embryonic fibroblast) cells", "experiment": "Nucleic acid transfection experiment (oligo DNA level), FITC-labeled single-strand DNA, FACS", "details": "0.3 μg FITC-labeled single-strand DNA (20 mer), 4 hours at 37° C.", "procedure": "as §1, §2"}, "[5]": {"tested_on": "T24 (human urinary bladder carcinoma) cells", "experiment": "Nucleic acid transfection experiment (siRNA level), FITC-labeled siRNA, flow cytometer", "details": "compounds (1-A)/(1-B): 0.6 mM), 0.5 μg FITC-labeled siRNA, 2 hours", "procedure": "(§3) In order to attain 50 to 60% confluence at the time of siRNA transfection, PC3 ([…]) cells, UMUC3 (human bladder carcinoma) cells and T24 (human urinary bladder carcinoma) cells were separately seeded in a 6-well plate on the day before the transfection and cultured at 37° C. in a 5% CO2 incubator.\n(§4) A 100-μl quantity of Opti-MEM was added to each of several 1.5-ml tubes, and two samples each of 1, 3 and 10 μl of PBS solution containing the carriers for nucleic acid transfection of Reference Example 3 in one of the two samples and Reference Example 8 in the other sample (each carrier for nucleic acid transfection content had been adjusted so that compound (1L-A) was at 0.067 mM) were separately added to each tube and then left to stand at room temperature for about 10 minutes. Further, 0.5 μg of FITC-labeled siRNA (fluorescent labeled siRNA ((sense)Fluo-[…]/(antisense)[…]: product of Proligo) was added to each tube and then left to stand for 15 minutes, forming a complex of siRNA and the carrier for gene transfection.\n(§5) Separately, 50 μl of Opti-MEM was added to each of several 1.5-ml tubes, and two samples each of 1, 3 and 10 μl of PBS solution containing 0.6 mM compound (1-A) in one of the two samples and 0.6 mM compound (1-B) in the other sample were separately added to each tube, mixed by tapping, and then left to stand at room temperature for 5 minutes. Further, 0.5 μg of FITC-labeled siRNA (same as above) was added to each tube and then left to stand for 30 minutes, forming a complex of the siRNA and carrier for gene transfection.\n(§6) After a while, the prepared solutions containing the siRNA and carrier for gene transfection were separately added to the wells in which the cells were present at 50 to 60% confluence. The plates were slowly pitched and rolled, and culture was then performed at 37° C. under a condition of 5% CO2 for 2 hours. After the culture was completed, FITC-positive cells were counted by a flow cytometer to calculate the siRNA transfection efficiency (%) in cells. Further, for comparison with conventional carriers for nucleic acid transfection (Lipofectamine 2000, TransIt-TKO, Metafectene, and oligofectamine), siRNA transfection efficiency (%) in cells was calculated in the same manner as above using the protocol recommended by the respective manufacture and corresponding to a transfection nucleic acid amount of 0.5 μg."}, "[6]": {"tested_on": "UMUC3 (human bladder carcinoma) cells", "experiment": "Nucleic acid transfection experiment (siRNA level), FITC-labeled siRNA, flow cytometer", "details": "compounds (1-A)/(1-B): 0.6 mM), 0.5 μg FITC-labeled siRNA, 2 hours", "procedure": "as §3, §4, §5, §6"}, "[7]": {"tested_on": "PC3 (human lung adenocarcinoma) cells", "experiment": "Nucleic acid transfection experiment (siRNA level), FITC-labeled siRNA, flow cytometer", "details": "compounds (1-A)/(1-B): 0.6 mM), 0.5 μg FITC-labeled siRNA, 2 hours", "procedure": "as §3, §4, §5, §6"}, "[8]": {"details": "1 μl of 0.04 mM compound solution"}, "[9]": {"details": "1 μl of 0.13 mM compound solution"}, "[10]": {"details": "1 μl of 0.37 mM compound solution"}, "[11]": {"details": "amount 1 μl of carrier solution (Reference Examples: 0.067 mM as compound (1L-A)"}, "[12]": {"details": "amount 3 μl of carrier solution (Reference Examples: 0.067 mM as compound (1L-A)"}, "[13]": {"details": "amount 10 μl of carrier solution (Reference Examples: 0.067 mM as compound (1L-A)"}},
  "data": [
    {"smiles": "N=C(N)NCCCC(N)C(=O)CC(CNC(=N)N)C(=O)NC(CCCNC(=N)N)C(=O)NCCCCC(N)C(=O)NC(CCCCNC(=O)C(CCCNC(=N)N)NC(=O)C(CNC(=N)N)CC(=O)C(N)CCCNC(=N)N)C(=O)NC(CCCCNC(=O)C(CCCNC(=N)N)NC(=O)C(CNC(=N)N)CC(=O)C(N)CCCNC(=N)N)C(=O)NC(CCCCNC(=O)C(CCCNC(=N)N)NC(=O)C(CNC(=N)N)CC(=O)C(N)CCCNC(=N)N)C(=O)NC(CCCCNC(=O)C(CCCNC(=N)N)NC(=O)C(CNC(=N)N)CC(=O)C(N)CCCNC(=N)N)C(=O)NCCCCCC(=O)NCCCCCC(N)=O", "note": "(stereo not shown) [(1-B)]", "values": [
      {"measurement": "DNA transfection efficiency in cells (%)", "setting": "[1]; [8]", "value": 13.4, "unit": "%"},
      {"measurement": "DNA transfection efficiency in cells (%)", "setting": "[1]; [9]", "value": 26.0, "unit": "%"},
      {"measurement": "DNA transfection efficiency in cells (%)", "setting": "[1]; [10]", "value": 31.4, "unit": "%"},
      {"measurement": "DNA transfection efficiency in cells (%)", "setting": "[2]; [8]", "value": 61.7, "unit": "%"},
      {"measurement": "DNA transfection efficiency in cells (%)", "setting": "[2]; [9]", "value": 77.2, "unit": "%"},
      {"measurement": "DNA transfection efficiency in cells (%)", "setting": "[2]; [10]", "value": 61.5, "unit": "%"},
      {"measurement": "DNA transfection efficiency in cells (%)", "setting": "[3]; [8]", "value": 65.0, "unit": "%"},
      {"measurement": "DNA transfection efficiency in cells (%)", "setting": "[3]; [9]", "value": 76.1, "unit": "%"},
      {"measurement": "DNA transfection efficiency in cells (%)", "setting": "[3]; [10]", "value": 83.8, "unit": "%"},
      {"measurement": "suitability for introducing nucleic acids into cells (conclusion from Table 1)", "setting": "[3]; conclusion over PC3, UMUC3, T24 and NIH-3T3 cells", "value": "excellently suitable for introducing nucleic acids into cells"},
      {"measurement": "DNA transfection efficiency in cells (%)", "setting": "[4]; [8]", "value": 84.0, "unit": "%"},
      {"measurement": "DNA transfection efficiency in cells (%)", "setting": "[4]; [9]", "value": 93.2, "unit": "%"},
      {"measurement": "DNA transfection efficiency in cells (%)", "setting": "[4]; [10]", "value": 87.0, "unit": "%"},
      {"measurement": "siRNA transfection efficiency in cells (%)", "setting": "[5]; [11]", "value": 11.6, "unit": "%"},
      {"measurement": "siRNA transfection efficiency in cells (%)", "setting": "[5]; [12]", "value": 19.2, "unit": "%"},
      {"measurement": "siRNA transfection efficiency in cells (%)", "setting": "[5]; [13]", "value": 60.7, "unit": "%"},
      {"measurement": "siRNA transfection efficiency in cells (%)", "setting": "[6]; [11]", "value": 5.3, "unit": "%"},
      {"measurement": "siRNA transfection efficiency in cells (%)", "setting": "[6]; [12]", "value": 4.4, "unit": "%"},
      {"measurement": "siRNA transfection efficiency in cells (%)", "setting": "[6]; [13]", "value": 7.0, "unit": "%"},
      {"measurement": "siRNA transfection efficiency in cells (%)", "setting": "[7]; [11]", "value": 3.5, "unit": "%"},
      {"measurement": "siRNA transfection efficiency in cells (%)", "setting": "[7]; [12]", "value": 10.1, "unit": "%"},
      {"measurement": "siRNA transfection efficiency in cells (%)", "setting": "[7]; [13]", "value": 42.0, "unit": "%"}
    ]}
  ]
}
